Measurements reported in patent US20220218690A1, “MONTELUKAST SALTS AND PHARMACEUTICAL COMPOSITIONS CONTAINING THE SAME” (GENETIC S.P.A., priority 2019, published 2022).
“Also recorded” adds a separate entry of the source.

Tests used:
[1] = tested on: bronchial hyperreactivity
Method: (§1) Mouse model of asthma. Female BALB/c mice (8 weeks: Charles River) were sensitized through subcutaneous administration of Ovalbumin (100 μg dissolved in 400 μl of AlOH3 13.5 mg/ml) on days 0 and 8, on the twenty-first day the mice were stimulated by aerosolic administration of Ovalbumin (3% for twenty minutes). The mice were sacrificed after 48 hours and the bronchi used for the evaluation of bronchial reactivity at carbachol and salbutamol. The drugs were administered intraperitoneally prior to each exposure to the allergen. […] Pulmonary tissues were harvested and used for dosage of cytokines such as IL-4 and IL-13. In addition plasma levels of IgE were measured.

IgE = settings: 0.3 mg/Kg; FIG. 18-A
Method: as §1

bronchial rings = settings: Montelukast 1 μM, in vitro, FIG. 12
Paw mouse edema = settings: 0.3 mg/kg intraperitoneal, 30 minutes before intraplantar carrageenin; FIG. 13

Structure (SMILES)	therapeutic efficacy in controlling the development of hyperreactivity to carbachol induced by sensitization ([1]; salt […] vs Formoterol 0.3 mg/kg and Montelukast 0.3 mg/kg (almost double molar dose), FIG. 16)	therapeutic efficacy in controlling the airway dysfunction induced by sensitization ([1]; salt at halved molar dose respect to single drugs)	IgE plasma levels (IgE)	effect of Montelukast preincubation on the bronchodilating response of Formoterol (bronchial rings)	anti-inflammatory effect (Paw mouse edema)
CC(C)(O)c1ccccc1CCC(SCC1(CC(=O)O)CC1)c1cccc(C=Cc2ccc3ccc(Cl)cc3n2)c1.COc1ccc(CC(C)NCC(O)c2ccc(O)c(NC=O)c2)cc1 (centres unmarked) [Montelukast formoterol salt, N-(2-(3-formamido-4-hydroxyphenyl)-2-hydroxyethyl)-1-(4-methoxy-phenyl)propan-2-aminium-2-(1-(((1-(3-(2-(7-chloroquinolin-2-yl)vinyl)-phenyl)-3-(2-(2-hydroxypropan-2-yl)phenyl)propyl)thio-)methyl)cyclopropyl)acetate]	significantly higher than the parent drugs Formoterol and Montelukast	significantly higher than Formoterol and Montelukast; also recorded: more efficiently reverses both airway effects			
CC(C)(O)c1ccccc1CC[C@@H](SCC1(CC(=O)O)CC1)c1cccc(/C=C/c2ccc3ccc(Cl)cc3n2)c1 [Montelukast, (R,E)-2-(1-((1-(3-(2-(7-Chloroquinolin-2-yl)vinyl)phenyl)-3-(2-(2-hydroxypropan-2-yl)phenyl)propylthio)-methyl)cyclopropyl)acetic acid]			unaffected	does not alter the bronchodilating response of the Formoterol, preserves its efficacy	induces an anti-inflammatory effect
